Source: PubChem BioAssay (NCI)
Values joined by “and” are separate entries in the source; they are usually repeats but may differ in a detail not shown here. Identical values can stand only once.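 Cultured in 96-well plates, cells were exposed to test compound for 48 hours across five concentrations. Here, GI50 denotes the concentration required for 50% inhibition of growth. TGI: total growth inhibition.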

Columns and labels:
Experiment in all cases: growth of human tumour cells (NCI), 48 h
OVCAR-5 ovarian = tested on: OVCAR-5 ovarian
SN12C renal = tested on: SN12C renal
TK-10 renal = tested on: TK-10 renal
KM12 colon = tested on: KM12 colon
ACHN renal = tested on: ACHN renal
U251 CNS = tested on: U251 CNS
HOP-62 NSCLC = tested on: HOP-62 NSCLC
SNB-19 CNS = tested on: SNB-19 CNS

Compound | GI50 (OVCAR-5 ovarian) | TGI (OVCAR-5 ovarian) | GI50 (SN12C renal) | TGI (SN12C renal) | GI50 (TK-10 renal) | TGI (TK-10 renal) | GI50 (KM12 colon) | TGI (KM12 colon) | GI50 (ACHN renal) | TGI (ACHN renal) | GI50 (U251 CNS) | TGI (U251 CNS) | GI50 (HOP-62 NSCLC) | TGI (HOP-62 NSCLC) | GI50 (SNB-19 CNS) | TGI (SNB-19 CNS)
CCOc1nc(-c2ccccc2)cc2c(O)c(-c3nnco3)[nH]c(=O)c12 | > 82.3 µM | > 100 µM | 3.27 µM | > 100 µM | 4.59 µM | 35.2 µM | 4.14 µM | > 100 µM | 5.02 µM | > 100 µM | 4.41 µM | > 43.7 µM | 4.12 µM | > 100 µM | 6.13 µM | > 62.4 µM
CNCCNc1c2c(c(NCCNC)c3c(CN(C)C)c[nH]c13)C(=O)c1ccccc1C2=O | 2.95 µM | 13.9 µM | 0.788 µM | 7.47 µM | 7.11 µM | 15.9 µM | 2.8 µM | 9.5 µM | 3.52 µM | 14.4 µM | 2.95 µM | 13.8 µM | 2.9 µM | 10.1 µM | 12.2 µM | > 41.7 µM
OCCN1CN(CCO)CN(c2nc(N3CN(CCO)CN(CCO)C3)nc(N3CN(CCO)CN(CCO)C3)n2)C1 | – | – | 6.3 ng/mL | 7.22 ng/mL | 2.05 ng/mL | 18.3 ng/mL | – | – | – | 1.64 ng/mL | – | – | – | – | 1.08 ng/mL | 63 ng/mL
C[C@H]1c2cccc(O)c2C(O)=C2C(=O)[C@]3(O)C(O)=C(C(N)=O)C(=O)[C@@H](N(C)C)[C@@H]3[C@@H](O)[C@@H]21 | 5.22 µM | 95.4 µM | 3.06 µM | 14.5 µM | 4.83 µM | 47.2 µM | 3.37 µM | 11.5 µM | 3.53 µM | 23.9 µM | 2.98 µM | 11.9 µM | 2.76 µM | 10.8 µM | 3.02 µM | 14.5 µM
COc1ccc(N(C)c2ncnc3occ(C)c23)cc1 | < 0.0113 µM | > 100 µM | < 0.01 µM | > 100 µM | 55.6 µM | > 100 µM | < 0.01 µM | – | 0.0193 µM | > 100 µM | < 0.01 µM | 11.9 µM | – | > 100 µM | < 0.01 µM | > 100 µM
CCCCCCCCCC/C=C/CC(=O)SCCNC(=O)CCNC(=O)[C@@H](O)C(C)(C)COP(=O)(O)OP(=O)(O)OCC1OC(n2cnc3c(N)ncnc32)C(O)C1OP(=O)(O)O (stereo partly specified) | – | > 10 µM | – | > 10 µM | – | > 10 µM | – | > 10 µM | – | > 10 µM | – | > 10 µM | – | > 10 µM | – | > 10 µM
COc1cc(C(=O)c2cc(C)c3[nH]c4ccc(Cl)cc4c3c2C)cc(OC)c1OC | 0.0635 µM | 18 µM | 0.0509 µM | 13.2 µM | 2.71 µM | 29.4 µM | 0.0531 µM | 2.4 µM | 0.0593 µM | 12.8 µM | 0.0425 µM | 15 µM | 0.0756 µM | 19.5 µM | 0.0418 µM | 19.2 µM
C#Cc1cccc(Nc2ncnc3cc(OC)c(OCCCCCCC(=O)NO)cc23)c1 | 0.121 µM | 3 µM | 0.129 µM | 4.21 µM | 0.185 µM | 2.36 µM | 0.197 µM | 3.46 µM | 0.127 µM | 2.48 µM | 0.151 µM | 4.07 µM | 0.311 µM | 4.57 µM | 0.115 µM | 3.65 µM
CNCCCn1cc(C2=C(c3cn(C)c4ccccc34)C(=O)NC2=O)c2ccccc21 | 7.65 µM | 20.7 µM | 4.86 µM | 18.4 µM | 4.16 µM | 10.7 µM | 3.89 µM | 8.39 µM | 3.99 µM | 13.9 µM | 3.14 µM | 6.96 µM | 5.59 µM | 13.4 µM | 6.29 µM | 22.7 µM
COc1ccc(N2C(=O)C(c3ccccc3)(c3ccccc3)C23C(=O)N(C)c2ccccc23)cc1 (stereo unspecified) | > 100 µM | > 100 µM | > 100 µM | > 100 µM | > 100 µM | > 100 µM | > 100 µM | > 100 µM | > 100 µM | > 100 µM | > 100 µM | > 100 µM | > 100 µM | > 100 µM | > 100 µM | > 100 µM
CC[C@]12C=CCN3CC[C@@]4(c5ccc(OC)cc5N(C)[C@H]4[C@@](O)(C(=O)OC)[C@@H]1OC(=O)CCC[P+](c1ccccc1)(c1ccccc1)c1ccccc1)[C@@H]32 | 1.19 µM and 1.38 µM | 5.91 µM and 11 µM | 0.719 µM and 0.491 µM | 5.45 µM and 6.66 µM | 1.59 µM and 1.28 µM | 6.46 µM and 3.3 µM | 0.274 µM and 0.527 µM | 1.06 µM and 1.8 µM | 5.32 µM and 7.58 µM | 14.5 µM and 20.1 µM | 0.487 µM and 0.336 µM | 6.59 µM and 2.64 µM | 1.84 µM and 2.18 µM | 7.71 µM and 7.08 µM | 0.296 µM and 0.382 µM | 6.04 µM and 1.66 µM
Clc1coc2nc3ccccc3c(Nc3ccc4c(c3)OCO4)c12 | 6.99 µM | > 100 µM | 5.95 µM | > 100 µM | 2.59 µM | 17.4 µM | 0.997 µM | 12.5 µM | 1.15 µM | 12.1 µM | 1.12 µM | 11.5 µM | 0.781 µM | 21.9 µM | 1.8 µM | > 100 µM
Cn1cc(C2=C(c3ccc4ccccc4c3)C(=O)NC2=O)c2ccccc21 | > 25 µM | > 25 µM | > 25 µM | > 25 µM | > 25 µM | > 25 µM | 12.5 µM | > 25 µM | > 25 µM | > 25 µM | > 25 µM | > 25 µM | > 25 µM | > 25 µM | > 25 µM | > 25 µM
CCC[CH2][Sn]([CH2]CCC)([CH2]CCC)[O]C(=O)CC | 0.154 µM | 0.387 µM | 0.158 µM | 0.365 µM | 0.161 µM | 0.305 µM | 0.135 µM | 0.27 µM | 0.17 µM | 0.333 µM | 0.168 µM | 0.327 µM | 0.188 µM | 0.414 µM | 0.169 µM | 0.335 µM
O=C1NC(=Nc2ccccc2)S/C1=C\c1ccc2ncccc2c1 | > 25 µM | > 25 µM | > 25 µM | > 25 µM | > 25 µM | > 25 µM | 1.62 µM | > 25 µM | > 25 µM | > 25 µM | > 5.13 µM | > 25 µM | 4.46 µM | > 25 µM | > 22.9 µM | > 25 µM
